Test results taken from patent US9995734B2, “Human T cell line assay for evaluating the immunologic identity of glatiramer acetate preparations” (Mylan Inc., priority 2013, dated 2018).

Test system: Donor 4 COP T-Cell Lines
Assay: ATP proliferation assay (CellTiter Glo), Donor 4 COP T-cell lines, incl. reactivity to non-canonical GA peptides
Format: cell-based, human
Settings: for luminescent ATP proliferation assay, Mean RLU: 205-1H7; for luminescent ATP proliferation assay, Mean RLU / Mean RLU: Day 59, 4 days incubation; for Mean, ATP proliferation assay: Cell Line 205-1F4; for Mean RLU: T-Cell Line 205-1H11

glatiramer acetate [COP]
luminescent ATP proliferation assay, Mean RLU (1 μg/mL, 0 μg/mL 3382): 13131 RLU
luminescent ATP proliferation assay, Mean RLU (10 μg/mL, 0 μg/mL 3382): 175652 RLU
luminescent ATP proliferation assay, Mean RLU (30 μg/mL, 0 μg/mL 3382): 190750 RLU
Mean, ATP proliferation assay (Day 50, 1 μg/mL): 47254
Mean, ATP proliferation assay (Day 50, 3 μg/mL): 169021
Mean, ATP proliferation assay (Day 50, 10 μg/mL): 213196
Mean, ATP proliferation assay (Day 58, 3 μg/mL): 21031
Mean, ATP proliferation assay (Day 58, 10 μg/mL): 31423
Mean, ATP proliferation assay (Day 58, 30 μg/mL): 31323
Mean, ATP proliferation assay (Day 58, 100 μg/mL): 31188
Mean RLU (1 μg/mL COP): 12243 RLU
Mean RLU (10 μg/mL COP): 147464 RLU
Mean RLU (30 μg/mL COP): 112673 RLU
Reactivity (proliferation), Mean (T-cell line 205-1B4, 1 μg/mL antigen, No Antigen 830): 1522 RLU
Reactivity (proliferation), Mean (T-cell line 205-1B4, 3 μg/mL antigen, No Antigen 830): 5501 RLU
Reactivity (proliferation), Mean (T-cell line 205-1B4, 10 μg/mL antigen, No Antigen 830): 11273 RLU
COP 10 μg/mL, ATP proliferation assay (T-cell line 205-1B4, Day 13, 10 μg/mL): 84937 RLU
COP 10 μg/mL, ATP proliferation assay (T-cell line 205-1B7, Day 13, 10 μg/mL): 74147 RLU
Reactivity (proliferation), Mean (T-cell line 205-1C4, 1 μg/mL antigen, No Antigen 4464): 8859 RLU
Reactivity (proliferation), Mean (T-cell line 205-1C4, 3 μg/mL antigen, No Antigen 4464): 26612 RLU
Reactivity (proliferation), Mean (T-cell line 205-1C4, 10 μg/mL antigen, No Antigen 4464): 41287 RLU
COP 10 μg/mL, ATP proliferation assay (T-cell line 205-1C4, Day 13, 10 μg/mL): 69861 RLU
COP 10 μg/mL, ATP proliferation assay (T-cell line 205-1D1, Day 13, 10 μg/mL): 63419 RLU
COP 10 μg/mL, ATP proliferation assay (T-cell line 205-1E1, Day 13, 10 μg/mL): 44198 RLU
COP 10 μg/mL, ATP proliferation assay (T-cell line 205-1F2, Day 13, 10 μg/mL): 71947 RLU
COP 10 μg/mL, ATP proliferation assay (T-cell line 205-1F4, Day 13, 10 μg/mL): 33143 RLU
Proliferation (luminescent ATP assay), Mean (T-cell line 205-1F4, Day 71, 1 μg/mL antigen, autologous B-LCL): 47254
Proliferation (luminescent ATP assay), Mean (T-cell line 205-1F4, Day 71, 3 μg/mL antigen, autologous B-LCL): 169021
Proliferation (luminescent ATP assay), Mean (T-cell line 205-1F4, Day 71, 10 μg/mL antigen, autologous B-LCL): 213196
COP 10 μg/mL, ATP proliferation assay (T-cell line 205-1G3, Day 13, 10 μg/mL): 54211 RLU
COP 10 μg/mL, ATP proliferation assay (T-cell line 205-1H1, Day 13, 10 μg/mL): 29824 RLU
Reactivity (proliferation), Mean (T-cell line 205-1H3, 1 μg/mL antigen, 0 μg/mL 4121.0): 32122.0
Reactivity (proliferation), Mean (T-cell line 205-1H3, 3 μg/mL antigen, 0 μg/mL 4121.0): 49585.0
Reactivity (proliferation), Mean (T-cell line 205-1H3, 10 μg/mL antigen, 0 μg/mL 4121.0): 60878.3
COP 10 μg/mL, ATP proliferation assay (T-cell line 205-1H3, Day 13, 10 μg/mL): 55518 RLU
COP 10 μg/mL, ATP proliferation assay (T-cell line 205-1H4, Day 13, 10 μg/mL): 50307 RLU
Reactivity (proliferation), Mean (T-cell line 205-1H5, 1 μg/mL antigen, No Antigen 749): 2375 RLU
Reactivity (proliferation), Mean (T-cell line 205-1H5, 3 μg/mL antigen, No Antigen 749): 7182 RLU
Reactivity (proliferation), Mean (T-cell line 205-1H5, 10 μg/mL antigen, No Antigen 749): 8580 RLU
COP 10 μg/mL, ATP proliferation assay (T-cell line 205-1H5, Day 13, 10 μg/mL): 57608 RLU
Proliferation (luminescent ATP assay), Mean (T-cell line 205-1H7, 1μg/mL antigen, after seven stimulations, 0 μg/mL 3382): 13131 RLU
Proliferation (luminescent ATP assay), Mean (T-cell line 205-1H7, 10 μg/mL antigen, after seven stimulations, 0 μg/mL 3382): 175652 RLU
Proliferation (luminescent ATP assay), Mean (T-cell line 205-1H7, 30 μg/mL antigen, after seven stimulations, 0 μg/mL 3382): 190750 RLU
COP 10 μg/mL, ATP proliferation assay (T-cell line 205-1H7, Day 13, 10 μg/mL): 64436 RLU
COP 10 μg/mL, ATP proliferation assay (T-cell line 205-1H9, Day 13, 10 μg/mL): 52972 RLU
Reactivity (proliferation), Mean (T-cell line 205-1H11, 1 μg/mL antigen, 0 μg/mL 6941): 12243 RLU
Reactivity (proliferation), Mean (T-cell line 205-1H11, 10 μg/mL antigen, 0 μg/mL 6941): 147464 RLU
Reactivity (proliferation), Mean (T-cell line 205-1H11, 30 μg/mL antigen, 0 μg/mL 6941): 112673 RLU
COP 10 μg/mL, ATP proliferation assay (T-cell line 205-1H11, Day 13, 10 μg/mL): 54232 RLU
ATP ratio (COP stimulated:unstimulated control) (fifteen Donor 4 wells, Day 13, 10 μg/mL (Table 26)): two or greater
